In PubChem BioAssay AID248 (DTP/NCI, 2004):
Values joined by “and” are separate entries in the source; they are usually repeats but may differ in a detail not shown here. Equal entries are not always repeated. Inconclusive results and toxic doses are left out. No stated cut-off is given here; in the data, active means T/C of 150% or more; inactive means T/C below 125%.

Tested on: L1210 leukemia ip in BDF1 mice, survival T/C
Assay: NCI In Vivo Anticancer Drug Screen. Data for tumor model L1210 Leukemia (intraperitoneal) in B6D2F1 (BDF1) mice
Settings: endpoint: mean survival time, higher = longer survival
In short: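 Mice bearing the transplanted tumor received compound or vehicle. Survival of the treated group was divided by that of the vehicle-treated control group to give the ratio.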

[1] = dose: 100.0 mg/kg/injection, schedule: Q04DX003 (ip), vehicle: saline
[2] = dose: 200.0 mg/kg/injection, schedule: Q04DX003 (ip), vehicle: saline
[3] = dose: 100.0 mg/kg/injection, schedule: Q01DX009 (ip), vehicle: Klucel (hydroxypropylcellulose) (HPC)
[4] = dose: 200.0 mg/kg/injection, schedule: Q01DX009 (ip), vehicle: Klucel (hydroxypropylcellulose) (HPC)
[5] = dose: 100.0 mg/kg/injection, schedule: Q04DX003 (ip), vehicle: Klucel (hydroxypropylcellulose) (HPC)
[6] = dose: 200.0 mg/kg/injection, schedule: Q04DX003 (ip), vehicle: Klucel (hydroxypropylcellulose) (HPC)
[7] = dose: 50.0 mg/kg/injection, schedule: Q01DX001 (ip), vehicle: carboxymethylcellulose (CMC)

Measured: T/C

COc1cccc2c1CCC/C2=N\N(C)C
inactive: dose: 100.0 mg/kg/injection, schedule: Q04DX003 (sc), vehicle: olive oil, sesame oil, peanut oil 107 % of control | dose: 200.0 mg/kg/injection, schedule: Q04DX003 (sc), vehicle: olive oil, sesame oil, peanut oil 105 % of control | dose: 400.0 mg/kg/injection, schedule: Q04DX003 (sc), vehicle: olive oil, sesame oil, peanut oil 109 % of control

CN(CC#CCOc1ccc(Cl)cc1Cl)c1ccccc1
inactive: dose: 100.0 mg/kg/injection, schedule: Q04DX002 (ip), vehicle: Klucel (hydroxypropylcellulose) (HPC) 102 % of control | dose: 200.0 mg/kg/injection, schedule: Q04DX002 (ip), vehicle: Klucel (hydroxypropylcellulose) (HPC) 98 % of control | dose: 400.0 mg/kg/injection, schedule: Q04DX002 (ip), vehicle: Klucel (hydroxypropylcellulose) (HPC) 91 % of control

CC(C)(C)OC(=O)CNC(=O)CCl
inactive: [1] 96 % of control | [2] 95 % of control

Nc1ccc(S(=O)(=O)O)cc1[N+](=O)[O-]
inactive: [1] 93 % of control | [2] 95 % of control | dose: 400.0 mg/kg/injection, schedule: Q04DX003 (ip), vehicle: saline 96 % of control

NC(CSCc1ccc(N(CCCl)CCCl)cc1)C(=O)O (stereo not drawn)
inactive: dose: 2.5 mg/kg/injection, schedule: Q01DX Z (ip), vehicle: carboxymethylcellulose (CMC) 124 % of control | dose: 4.0 mg/kg/injection, schedule: Q01DX Z (ip), vehicle: other 112 % of control | dose: 7.0 mg/kg/injection, schedule: Q01DX009 (ip), vehicle: saline 109 % of control | dose: 7.0 mg/kg/injection, schedule: Q01DX Z (ip), vehicle: saline 111 % of control | dose: 10.0 mg/kg/injection, schedule: Q01DX001 (ip), vehicle: carboxymethylcellulose (CMC) 87 % of control | dose: 11.0 mg/kg/injection, schedule: Q01DX009 (ip), vehicle: saline 103 % of control | dose: 11.0 mg/kg/injection, schedule: Q01DX Z (ip), vehicle: saline 118 % of control | dose: 16.0 mg/kg/injection, schedule: Q01DX009 (ip), vehicle: saline 111 % of control | dose: 16.0 mg/kg/injection, schedule: Q01DX Z (ip), vehicle: saline 114 % of control | dose: 24.0 mg/kg/injection, schedule: Q01DX009 (ip), vehicle: saline 103 % of control | dose: 24.0 mg/kg/injection, schedule: Q01DX Z (ip), vehicle: saline 124 % of control | dose: 30.0 mg/kg/injection, schedule: Q01DX Z (ip), vehicle: other 123 % of control | dose: 32.0 mg/kg/injection, schedule: Q01DX009 (ip), vehicle: saline 113 % of control | dose: 40.0 mg/kg/injection, schedule: Q01DX001 (ip), vehicle: carboxymethylcellulose (CMC) 95 % of control | dose: 40.0 mg/kg/injection, schedule: Q01DX Z (ip), vehicle: carboxymethylcellulose (CMC) 100 % of control | dose: 80.0 mg/kg/injection, schedule: Q01DX001 (ip), vehicle: carboxymethylcellulose (CMC) 91 % of control
active: dose: 10.0 mg/kg/injection, schedule: Q01DX Z (ip), vehicle: carboxymethylcellulose (CMC) 157 % of control | dose: 20.0 mg/kg/injection, schedule: Q01DX Z (ip), vehicle: carboxymethylcellulose (CMC) 152 % of control and 168 % of control

CC(=O)N(C)c1ccc(NC(=O)CCl)cc1
inactive: [3] 109 % of control | [4] 116 % of control

O=C(Nc1ccccc1)Oc1cccnc1
inactive: dose: 100.0 mg/kg/injection, schedule: Q01DX001 (ip), vehicle: Klucel (hydroxypropylcellulose) (HPC) 98 % of control | dose: 200.0 mg/kg/injection, schedule: Q01DX001 (ip), vehicle: Klucel (hydroxypropylcellulose) (HPC) 100 % of control | dose: 400.0 mg/kg/injection, schedule: Q01DX001 (ip), vehicle: Klucel (hydroxypropylcellulose) (HPC) 98 % of control

O=[N+]([O-])c1cc2c3ccccc3oc2c2cccnc12
inactive: [3] 91 % of control | [5] 90 % of control | [4] 90 % of control | [6] 90 % of control | dose: 400.0 mg/kg/injection, schedule: Q04DX003 (ip), vehicle: Klucel (hydroxypropylcellulose) (HPC) 89 % of control

O=C1OC2CC3CC1C2C3 (stereo not drawn)
inactive: dose: 5.0 mg/kg/injection, schedule: Q01DX001 (ip), vehicle: other 91 % of control | dose: 10.0 mg/kg/injection, schedule: Q01DX001 (ip), vehicle: other 91 % of control | dose: 10.0 mg/kg/injection, schedule: Q01DX001 (ip), vehicle: saline 101 % of control | dose: 12.5 mg/kg/injection, schedule: Q01DX009 (ip), vehicle: Klucel (hydroxypropylcellulose) (HPC) 98 % of control | dose: 20.0 mg/kg/injection, schedule: Q01DX001 (ip), vehicle: other 95 % of control | dose: 20.0 mg/kg/injection, schedule: Q01DX001 (ip), vehicle: saline 105 % of control | dose: 25.0 mg/kg/injection, schedule: Q01DX009 (ip), vehicle: Klucel (hydroxypropylcellulose) (HPC) 96 % of control | dose: 25.0 mg/kg/injection, schedule: Q04DX003 (ip), vehicle: Klucel (hydroxypropylcellulose) (HPC) 95 % of control | dose: 40.0 mg/kg/injection, schedule: Q01DX001 (ip), vehicle: other 94 % of control | dose: 40.0 mg/kg/injection, schedule: Q01DX001 (ip), vehicle: saline 99 % of control | [7] 108 % of control | dose: 50.0 mg/kg/injection, schedule: Q01DX009 (ip), vehicle: Klucel (hydroxypropylcellulose) (HPC) 88 % of control | dose: 50.0 mg/kg/injection, schedule: Q04DX003 (ip), vehicle: Klucel (hydroxypropylcellulose) (HPC) 88 % of control | dose: 75.0 mg/kg/injection, schedule: Q01DX001 (ip), vehicle: acetone 97 % of control | dose: 100.0 mg/kg/injection, schedule: Q01DX001 (ip), vehicle: carboxymethylcellulose (CMC) 108 % of control

CCCCOc1ccc(NC(N)=Nc2ccc(Cl)cc2)cc1
inactive: dose: 2.5 mg/kg/injection, schedule: Q01DX009 (ip), vehicle: saline with Tween-80 102 % of control | dose: 5.0 mg/kg/injection, schedule: Q01DX009 (ip), vehicle: saline with Tween-80 94 % of control | dose: 10.0 mg/kg/injection, schedule: Q01DX009 (ip), vehicle: saline with Tween-80 96 % of control | dose: 10.0 mg/kg/injection, schedule: Q04DX003 (ip), vehicle: saline with Tween-80 101 % of control | dose: 12.5 mg/kg/injection, schedule: Q01DX001 (ip), vehicle: carboxymethylcellulose (CMC) 109 % of control | dose: 20.0 mg/kg/injection, schedule: Q01DX009 (ip), vehicle: saline with Tween-80 103 % of control | dose: 20.0 mg/kg/injection, schedule: Q04DX003 (ip), vehicle: saline with Tween-80 92 % of control | dose: 25.0 mg/kg/injection, schedule: Q01DX001 (ip), vehicle: carboxymethylcellulose (CMC) 100 % of control | dose: 40.0 mg/kg/injection, schedule: Q04DX003 (ip), vehicle: saline with Tween-80 97 % of control | [7] 100 % of control | dose: 80.0 mg/kg/injection, schedule: Q04DX003 (ip), vehicle: saline with Tween-80 98 % of control

N#[N+]c1n[nH]nc1C(N)=O
inactive: dose: 25.0 mg/kg/injection, schedule: Q01DX Z (ip), vehicle: carboxymethylcellulose (CMC) 97 % of control | dose: 35.0 mg/kg/injection, schedule: Q01DX Z (ip), vehicle: carboxymethylcellulose (CMC) 95 % of control

CS(=O)(=O)Nc1ccccc1OS(C)(=O)=O
inactive: dose: 75.0 mg/kg/injection, schedule: Q01DX001 (ip), vehicle: saline 102 % of control | dose: 150.0 mg/kg/injection, schedule: Q01DX001 (ip), vehicle: saline 106 % of control | dose: 300.0 mg/kg/injection, schedule: Q01DX001 (ip), vehicle: saline 106 % of control

CCCCNc1ncnc2c1nnn2C1OC(CO)C(O)C1O (stereo not drawn)
inactive: dose: 12.5 mg/kg/injection, schedule: Q04DX002 (ip), vehicle: Klucel (hydroxypropylcellulose) (HPC) 100 % of control | dose: 25.0 mg/kg/injection, schedule: Q04DX002 (ip), vehicle: Klucel (hydroxypropylcellulose) (HPC) 94 % of control | dose: 50.0 mg/kg/injection, schedule: Q04DX002 (ip), vehicle: Klucel (hydroxypropylcellulose) (HPC) 97 % of control

O=S(=O)(O)c1ccc(Cl)cc1
inactive: dose: 100.0 mg/kg/injection, schedule: Q04DX003 (ip), vehicle: saline with Tween-80 96 % of control | dose: 200.0 mg/kg/injection, schedule: Q04DX003 (ip), vehicle: saline with Tween-80 104 % of control | dose: 400.0 mg/kg/injection, schedule: Q04DX003 (ip), vehicle: saline with Tween-80 106 % of control

CC(=O)Nc1cccc2nsnc12
inactive: [5] 100 % of control | [6] 93 % of control
